The test system of the assay is guar explants. The assay can be described thus: Agrobacterium-mediated transformation of guar cotyledon explants: selection, shoot harvest and GUS test. Type of assay: cell-based, Cyamopsis tetragonoloba. Here is the method:
Cotyledons with about 2 mm of hypocotyl were excised from 12 day old seedlings. The cotyledons were then torn apart using a tweezers to create wound surfaces and placed in the Agrobacterium-suspension for 30 min.
Co-cultivation proceeded for 3 days at 25° C. and a 12 h/12 h day/night regime. After co-culture the explants were washed with 1/10 MS-medium, to which 100 mg/l carbenicillin, 100 mg/l cefotaxime and 1000 mg/l lysozyme had been added, 2-3 times for 45 min. while stirring at 100 rpm.
The explants were transferred to selection medium and incubated as above (25° C., 12 h day/12 h night).
After 4 weeks, shoots larger than 3 mm were harvested and transferred to shoot medium. After 10-14 days the shoots were tested for activity of the reporter gene β-glucuronidase (GUS), see below. GUS-positive shoots were transferred to fresh shoot medium while the GUS-negative shoots were discarded.
After the first harvest, explants (from which shoots had been harvested) were transferred to a second selection medium with a lower kanamycin concentration (50 mg/l) . After another 4 weeks shoots were harvested and GUS-tested. The positive shoots were transferred to fresh medium, while the negatives were discarded.
Tips of young leaves were excised and transferred to a multi-dish well containing 200 μl X-gluc solution. After incubation for 16 h at 35° C. the leaf tips were destained with 96% ethanol and the degree of blue stain was determined under a microscope.

[1] abbreviates: kanamycin sulfate 125 mg/l in selection medium, 1600 explants, strain EHA 101.
The mark [2] stands for this setting: kanamycin sulfate 135 mg/l in selection medium, 1600 explants, strain EHA 101.
The mark [3] stands for this setting: kanamycin sulfate 145 mg/l in selection medium, 1600 explants, strain EHA 101.
Where [4] appears, read: 0.1-2 mg/l PCIB during selection.
[5] abbreviates: thidiazuron 0.3 mg/l, 742 explants.
The mark [6] stands for this setting: thidiazuron 1.0 mg/l, 741 explants.
Setting [7] is: thidiazuron 3.0 mg/l, 1522 explants.
The mark [8] stands for this setting: thidiazuron 4.5 mg/l, 797 explants.

Structures can show the parent of a compound that is named as a salt.

For the compound `CC1(C)S[C@@H]2[C@H](NC(=O)C(C(=O)O)c3ccccc3)C(=O)N2[C@H]1C(=O)O` (some centres unmarked) [Carbenicil., carbenicillin], the “No. of GUS+ shoots” value (carbenicillin 800 mg/l, cefotaxime 0, sulbactam 0, 800 explants, EHA 101) worked out at 2.
On to `NC[C@H]1O[C@H](O[C@H]2[C@H](O)[C@@H](O[C@H]3O[C@H](CO)[C@@H](O)[C@H](N)[C@H]3O)[C@H](N)C[C@@H]2N)[C@H](O)[C@@H](O)[C@@H]1O` [Kanamycin sulf., kanamycin sulfate], for which, under “100 mg/l kanamycin or less”, the regeneration frequencies was roughly 100%. Further, the “No. of GUS+ shoots” value turned out to be 3 under setting [1], 5 under setting [2] and 8 under setting [3]. The “No. of regenerated shoots” value is, setting by setting: under setting [1], 21; under setting [2], 19; under setting [3], 15. The “transgenic shoots found at the second harvest” value (second harvest, kanamycin concentration reduced) is given as “About 50%”. The “optimal kanamycin sulfate concentration in the selection medium” value (selection medium) was 145 mg/L.
Turning to `O.O.O.O.O.O.[Cl][Ni][Cl]` [NiCl2, 6H2O], the “No. of GUS+ shoots” value runs as follows: (NiCl2, 6H2O 1.0 mg/l with BAP 1.0 mg/l, 1200 explants, EHA 101) 4; (NiCl2, 6H2O 1.0 mg/l with BAP 5.0 mg/l, 1200 explants, EHA 101) 4. For the setting “addition of 1 mg/l NiCl2, 6H2O”, the higher transformation frequency is 2-4 times.
With `CC(C)(Oc1ccc(Cl)cc1)C(=O)O` [PCIB, 2-(p-chlorophenoxy)-2-methylpropionic acid], under setting [4], the amount of callus is given as “reduced the amount of callus significantly”; the “regeneration and number of transgenic shoots” value was “enhanced regeneration and the number of transgenic shoots”.
With benzyladenine purine [BAP], the “total number of regenerated shoots on 5 mg/l BAP compared with 1 mg/l” value (5 mg/l vs 1 mg/l BAP in selection medium) is “about twice as high”. Besides, the “No. of GUS+ shoots” value (BAP 1.0 mg/l, NiCl2, 6H2O 0 mg/l, 1200 explants, EHA 101) is 1 and the “No. of GUS+ shoots” value (BAP 5.0 mg/l, NiCl2, 6H2O 0 mg/l, 1200 explants, EHA 101) came to 2.
In the case of `O=C(Nc1ccccc1)Nc1cnns1` [Thidiazuron, thidiazuron], the “subsequent cloning of the transgenic shoots” value was “beneficial for the subsequent cloning of the transgenic shoots”. The “increase of transformation frequencies” value (TDZ 0.3-3.0 mg/l vs no TDZ) is 1.5-1.8 fold. Further, the “optimum TDZ concentrations in the selection media” value (selection media) lay in the range of 0.3 to 3.0 mg/L. In addition, under setting [5], the “No. of GUS+ shoots” value amounted to 8 and the “Transform. freq. (%)” value is on record as 1.08%. Besides, under setting [6], the “No. of GUS+ shoots” value was 9 and the “Transform. freq. (%)” value was 1.21%. In addition, under setting [7], the “No. of GUS+ shoots” value is 16 and the “Transform. freq. (%)” value amounted to 1.05%. Also, under setting [8], the “No. of GUS+ shoots” value was found to be 5 and the “Transform. freq. (%)” value came out at 0.63%.
Turning to silver thiosulfate [STS], the “No. of GUS+ shoots” value runs as follows: (STS 2.5 μM, calculated per 1000 explants, EHA 101) 12; (STS 5.0 μM, calculated per 1000 explants, EHA 101) 8; (STS 10.0 μM, calculated per 1000 explants, EHA 101) 7. Further, for the setting “presence of STS vs absence”, the shoot quality entry is reported as “significantly improved shoot quality”.
For the compound `CC1(C)[C@H](C(=O)O)N2C(=O)C[C@H]2S1(=O)=O` [Sulbactam, sulbactam], the “No. of GUS+ shoots” value (sulbactam 100 mg/l with carbenicillin 50 mg/l and cefotaxime 50 mg/l, 800 explants, EHA 101) was 9; the “No. of GUS+ shoots” value (sulbactam 100 mg/l with carbenicillin 100 mg/l and cefotaxime 100 mg/l, 800 explants, EHA 101) stood at 5.

(Values after patent publication US20010034887A1, “Transformation of guar” (priority 1994, published 2001).)
